Experimental data as given in patent US20090298077A1, “ASSAY FOR MEASUREMENT OF APURINIC/APYRIMIDINIC (AP) SITES AND FOR SCREENING AP-SITE REACTIVE COMPOUNDS” (priority 2006, published 2009).
Values joined by “and” are separate entries in the source; they are usually repeats but may differ in a detail not shown here. Equal values may be shown once.

Assays:
Type in all cases: binding, calf
AP-DNA [1] = assay: Competitive reactions between FARP and MX with AP-DNA; settings: [FARP]/[MX] 50.0 μM/20.0 μM, 125 nM AP-DNA
AP-DNA [2] = assay: as above; settings: for Fluorescence Intensity/10^4: 125 nM AP-DNA
Experimental: (§1) 100 μL of 5 μM FARP in phosphate buffer (10 mM, pH 7.0) was added to 200 μL phosphate buffer (10 mM, pH 7.0) containing 10 μg of DNA extracted from cells, individual AP-DNA standard (10, 20, 40, 80, 160, 320, and 640 nM AP), and blank AP-DNA control, respectively. After vortexing, the reaction was allowed to proceed at room temperature for 15 min. At the end of the reaction 200 μL ammonium acetate (7.5M) and 1000 μL ice-cold ethanol (100%) were added. The solution was mixed gently by inverting the tube before keeping it at −20° C. for 30 min. Each tube was centrifuged at 4° C. and 12,000 g for 10 min. The supernatant was poured out carefully so that no loss of FARP-AP-DNA took place. 1200 μL of ice-cold ethanol (70%) was added to each tube to remove the free FARP by centrifugation at 4° C. and 12,000 g for 10 min. This washing step with 70% ice-cold ethanol was repeated two more times. After discarding the supernatant, the FARP-AP-DNA precipitate in the tube was dried at room temperature for 30 min. in a venting hood. The FARP-AP-DNA precipitate was hydrated and resuspended in 200 μL of phosphate buffer (10 mM, pH 9.0) at room temperature for 1 hr. The fluorescence intensity of the resultant FARP-AP-DNA solution was measured by the FluoroMax-2 spectrofluorometer. A calibration curve could be constructed by plotting the fluorescence intensity versus the concentration of AP sites.
Since aminooxy and hydrazone nucleophiles can react with aldehyde group of AP site and form condensation product, it is desirable to know when MX and FARP compete with AP-DNA, which compound has greater reactivity toward AP-DNA. The finding of this experiment will lay the foundation of a screening assay for MX-like compounds.
In the study, the amount of AP-DNA used were 125 nM in 200 μL of 10 mM phosphate buffer at pH 7.0 and the ratios of [FARP]/[MX] were as follows: 50 μM FARP/0 μM, 50.0 μM/5 μM, 50.0 μM/12.5 μM, 50.0 μM/16.7 μM, 50.0 μM/25.0 μM 50.0 μM/22.7 μM, 50.0 μM/25 μM, 50.0 μM/50.0 μM, 50.0 μM/100.0 μM, 50.0 μM/200.0 μM, 50.0 μM/500.0 μM in 100 μL of 10 mM phosphate buffer at pH 7.0. Because MX and FARP were competing for a limited amount of AP-DNA, and only FARP-AP-DNA was fluorescent, the reduced fluorescence intensity reflected the amount of MX binding to the AP sites. […] This is probably due to the molecular size of MX, which allows it to diffuse to faster to the AP-DNA than FARP molecule in aqueous solution.

AP-DNA [3] = assay: Reversibility study of the condensation reaction between FARP / MX and AP-DNA; settings: for Fluorescence Intensity, FARP Reaction Followed MX Reaction: FARP-AP-DNA incubated with 50 μM MX; for Fluorescence Intensity, MX Replacement Followed by FARP Replacement: MX-AP-DNA incubated with 50 μM FARP
Experimental: It was known that the aldehyde group of an AP site could easily condense with aminooxy or hydrazone nucleophiles. However, the reversibility of the reaction was not clear, especially in the presence of another competing nucleophile. To clarify the above, two experiments were designed and carried out as follows: (a) FARP (50 μM in 100 μL of 10 mM phosphate buffer at pH 7.0) reacted with AP-DNA (125 nM in 200 μL of 10 mM phosphate buffer at pH 7.0) for 1 hr, after washing the condensation product (FARP-AP-DNA) incubated with MX (50 μM in 100 μL of 10 mM phosphate buffer at pH 7.0) for various time periods; and (b) MX (50 μM in 100 μL of 10 mM phosphate buffer at pH 7.0) reacted with AP-DNA (125 nM, 200 μL) for 1 hr, after washing the condensation product (MX-AP-DNA) incubated with FARP (50 μM in 100 μL of 10 mM phosphate buffer at pH 7.0) for various time periods.

AP-DNA [4] = assay: FARP AP-site assay: screening of MX-like compounds in competition with FARP
Experimental: as §1
One important application of the FARP AP-site assay developed is to screen MX-like compounds for their reactivity to AP site based on known chemical structures. In this work, four compounds with aminooxy or hydrazone group (i.e., MXL1O1, MXLIO2, MXLI 03, and MXL 104) together with MX were tested. The detail experiment included mixing equal concentration and volume of each individual test compound with FARP (50 μM in 100 μL of 10 mM phosphate buffer at pH 7.0) before reacting with 200 µL of 100 nM AP-DNA. The remaining experimental procedures were the same as described in the Experimental section. The data of fluorescence intensity reduced by MX and MX-like compounds were given in Table XI and the fluorescence intensity of the test compounds were compared in FIG. 19.

[5] = test compound mixed with FARP at equal concentration and volume (50 μM in 100 μL, pH 7.0), 100 nM AP-DNA

**Q.** How did the “Fluorescence Intensity/10^4” value (AP-DNA [1]) turn out when `CON` [MX, methoxyamine] was run?
**A.** The value was 5.6423.

**Q.** What about the “Fluorescence Intensity/10^4” value (AP-DNA [2]; [FARP]/[MX] 50.0 μM/5.0 μM) of the same compound?
**A.** Its value is 8.9453.

**Q.** What about the “Fluorescence Intensity/10^4” value (AP-DNA [2]; [FARP]/[MX] 50.0 μM/12.5 μM) of the same compound?
**A.** Its value is 8.3567.

**Q.** What about the “Fluorescence Intensity/10^4” value (AP-DNA [2]; [FARP]/[MX] 50.0 μM/16.7 μM) of the same compound?
**A.** The value was 7.6453.

**Q.** And the “Fluorescence Intensity/10^4” value (AP-DNA [2]; [FARP]/[MX] 50.0 μM/22.7 μM)?
**A.** Its value is 3.8976.

**Q.** And the “Fluorescence Intensity/10^4” value (AP-DNA [2]; [FARP]/[MX] 50.0 μM/25.0 μM)?
**A.** The value was 3.2452.

**Q.** What about the “Fluorescence Intensity/10^4” value (AP-DNA [2]; [FARP]/[MX] 50.0 μM/50.0 μM) of the same compound?
**A.** The value was 2.587.

**Q.** And the “Fluorescence Intensity/10^4” value (AP-DNA [2]; [FARP]/[MX] 50.0 μM/100.0 μM)?
**A.** Its value is 2.348.

**Q.** What about the “Fluorescence Intensity/10^4” value (AP-DNA [2]; [FARP]/[MX] 50.0 μM/200.0 μM) of the same compound?
**A.** The value was 2.2876.

**Q.** What about the “Fluorescence Intensity/10^4” value (AP-DNA [2]; [FARP]/[MX] 50.0 μM/500.0 μM) of the same compound?
**A.** Its value is 2.0896.

**Q.** What about the “affinity toward AP-DNA compared with FARP” value (AP-DNA [2]; result in words) of the same compound?
**A.** The value was “greater affinity toward APDNA than that of FARP”.

**Q.** And the “Fluorescence Intensity, FARP Reaction Followed MX Reaction” value (AP-DNA [3]; replacement time 10 min)?
**A.** Its value is 11,003.

**Q.** And the “Fluorescence Intensity, FARP Reaction Followed MX Reaction” value (AP-DNA [3]; replacement time 20 min)?
**A.** Its value is 11,289.

**Q.** What about the “Fluorescence Intensity, FARP Reaction Followed MX Reaction” value (AP-DNA [3]; replacement time 30 min) of the same compound?
**A.** The value was 10,759.

**Q.** What about the “Fluorescence Intensity, FARP Reaction Followed MX Reaction” value (AP-DNA [3]; replacement time 40 min) of the same compound?
**A.** The value was 11,193.

**Q.** What about the “Fluorescence Intensity, FARP Reaction Followed MX Reaction” value (AP-DNA [3]; replacement time 50 min) of the same compound?
**A.** Its value is 11,226.

**Q.** What about the “Fluorescence Intensity, FARP Reaction Followed MX Reaction” value (AP-DNA [3]; replacement time 60 min) of the same compound?
**A.** The value was 11,139.

**Q.** And the “Fluorescence Intensity, FARP Reaction Followed MX Reaction” value (AP-DNA [3]; replacement time 90 min)?
**A.** Its value is 11,112.

**Q.** What about the “Fluorescence Intensity, FARP Reaction Followed MX Reaction” value (AP-DNA [3]; replacement time 120 min) of the same compound?
**A.** The value was 11,145.

**Q.** And the “Fluorescence Intensity, MX Replacement Followed by FARP Replacement” value (shortened to “Fluorescence Intensity … by FARP Replacement”) (AP-DNA [3]; replacement time 10 min)?
**A.** The value was 3,366.

**Q.** And the “Fluorescence Intensity … by FARP Replacement” value (AP-DNA [3]; replacement time 20 min)?
**A.** Its value is 3,225.

**Q.** And the “Fluorescence Intensity … by FARP Replacement” value (AP-DNA [3]; replacement time 30 min)?
**A.** The value was 3,557.

**Q.** What about the “Fluorescence Intensity … by FARP Replacement” value (AP-DNA [3]; replacement time 40 min) of the same compound?
**A.** Its value is 3,410.

**Q.** What about the “Fluorescence Intensity … by FARP Replacement” value (AP-DNA [3]; replacement time 50 min) of the same compound?
**A.** The value was 3,321.

**Q.** What about the “Fluorescence Intensity … by FARP Replacement” value (AP-DNA [3]; replacement time 60 min) of the same compound?
**A.** Its value is 3,192.

**Q.** And the “Fluorescence Intensity … by FARP Replacement” value (AP-DNA [3]; replacement time 90 min)?
**A.** Its value is 3,202.

**Q.** And the “Fluorescence Intensity … by FARP Replacement” value (AP-DNA [3]; replacement time 120 min)?
**A.** Its value is 3,081.

**Q.** What about the “reversibility of the condensation reaction with aldehyde group of AP-DNA” value (AP-DNA [3]; result in words, under the assay conditions) of the same compound?
**A.** Its value is “irreversible”.

**Q.** And the “Normalized Fluorescence Intensity %” value (AP-DNA [4]; relative to FARP alone = 100, equal concentration of test compound and FARP, 100 nM AP-DNA)?
**A.** Its value is 37.3%.

**Q.** And the “reactivity toward AP-DNA compared with FARP” value (AP-DNA [4]; result in words)?
**A.** The value was “higher reactivity than FARP”.

**Q.** And the “Fluorescence Intensity Individual Measurement” value (AP-DNA [4]; [5])?
**A.** Its value is 6543.0 and 6137.0.

**Q.** What about the “Fluorescence Intensity Mean” value (AP-DNA [4]; [5]) of the same compound?
**A.** Its value is 6340.0.
